Assay [1] deals with serum starved placental explants. Kind of assay: Placental explant culture in serum-free medium, 4HNE / LC3B / LAMP2 immunohistochemistry. The settings on record: 24 hr of treatment; for disturbance in autophagosome size / disturbance in lysosomal location: serum starved placental explants; for production of 4HNE (induced by serum starvation): term placental explants, serum-free medium, 1 nM, p<0.05 (N=6). The class given is cell-based, human. The text has this:
For in vitro experiments, human term placentas (38-39 weeks of gestation) were obtained from women with normal singleton pregnancies without any symptoms of labour after an elective (a scheduled repeat) caesarean section. Placentas were collected immediately after delivery and prepared for explant culture. Villous tissues of placentas were randomly sampled from different regions of placenta and 4-5 mm beneath the chorionic plate. Tissues were washed several times with Dulbecco's phosphate-buffered saline (DPBS) under sterile condition to remove excess blood.
Villous explants of ˜2 mm^3 were dissected and placed into 100×20 mm culture dishes (30 pieces/dish) containing 25 ml of Dulbecco's modified Eagle's medium (DMEM) supplemented with 2 mM L-glutamine, 1% Na-pyruvate, 1% penicillin/streptomycin (100×) solution with the addition of 10% (v/v) fetal bovine serum (FBS) and were cultured in a cell culture chamber at 37° C. temperature and maintaining 95% air (20% oxygen) and 5% CO2 for 24 hours. At day 2, villous explants were transferred to fresh 30 ml growth medium and incubated in a cell culture chamber for 90 minutes. After this the tissues were washed in DMEM without FBS (refer to as ‘serum-free medium’ or ‘growth factor deficient medium’). Next 6-7 pieces of villous tissue weighing approximately 400 mg were transferred to a culture dish (60×15 mm) containing 6 ml serum-free medium with or without the addition of pharmacological agents, for example, raloxifene (1 nM) and GPER1 agonist G1 (1 nM), for subsequent incubation up to 24 h. At the end of 24 h some tissues were fixed in 2% formaldehyde, subjected to routine histological processing and embedded in paraffin wax, and some tissues were immediately frozen in liquid nitrogen and stored at −80° C. until subsequent experiments. For each placental explant culture, samples were also collected at time ‘0 (zero)’ h i.e., before incubation in serum free medium, and were formalin fixed and stored frozen at −80° C. until further experiments.
6 μm paraffin placental sections were deparaffinised and hydrated, then heated with tris-EDTA buffer (pH 9) in a microwave oven for antigen retrieval. The sections were blocked with 1% BSA in TBST for an hour at room temperature. The sections were incubated with primary antibodies overnight and washed three times with TBST, before incubation with Alexa-conjugated secondary antibodies for 90 mins. The sections were mounted with antifade solution with DAPI. The fluorescent photographs for FIGS. 3 to 7, 9 and 11 were taken on a Nikon eclipse 90i confocal microscope. The fluorescent photographs for FIG. 10 were taken on Nikon eclipse Ti fluorescence microscope.
The present data provide clear evidence for increased lipid oxidation, disordered lysosome-autophagosome interactions and increased AOX1 expression in the post-dated and stillbirth placental syncytiotrophoblast. To determine if these events were causally linked the inventors developed a placental explant culture system using term placental tissue cultured in serum-free (growth factor deficient) medium.
The inventors sought to determine cause and effect relationships between the development of lipid oxidation observed when placental explants were cultured in the absence of serum and AOX1. The GPER agonist G-1 was used to inhibit aldehyde oxidase. The potent AOX1 inhibitor, raloxifene, was also used.

For the next assay, the system named is kidney. As to conditions: Lindsey et al., 2011, Hypertension, 58: 665-671; cited from earlier work.

Entries after “also recorded” stand apart in the source; their conditions may differ.

With `O=C(c1ccc(OCCN2CCCCC2)cc1)c1c(-c2ccc(O)cc2)sc2cc(O)ccc12` [raloxifene], in assay [1], the “disturbance in autophagosome size” value was “able to block”, the “disturbance in lysosomal location” value is “able to block” and the “production of 4HNE (induced by serum starvation)” value is given as “inhibited the production of 4HNE; also recorded: significantly reduced”.
As to `CC(=O)c1ccc2c(c1)C1C=CCC1C(c1cc3c(cc1Br)OCO3)N2` (stereo not shown) [G1, 1-[4-(6-bromobenzo[1,3]dioxol-5yl)-3a,4,5,9b-tetrahydro-3H-cyclopenta[c]quinolin-8-yl]-ethanone], in assay [1], the “disturbance in autophagosome size” value is listed as “able to block”, the “disturbance in lysosomal location” value is recorded as “able to block” and the “production of 4HNE (induced by serum starvation)” value is on record as “inhibited the production of 4HNE; also recorded: significantly reduced”. The “production of 4HNE in the kidney” value with kidney is recorded as “inhibit production of 4HNE in the kidney”.

The values are drawn from patent publication US20230404994A1, “MARKERS OF TISSUE AGING AND USES THEREFOR” (The University of Newcastle, priority 2017, published 2023).
